In patent US5140025A, “Thienotricylene for the treatment of bronchial diseases” (BYK Gulden Lomberg Chemische Fabrik GmbH, priority 1987, dated 1992):

What was measured:
[1] = biological target: T1, M2 receptor (cardiac) (Rattus norvegicus, UniProt P10980); test: Receptor affinity, electrically stimulated left atrium of the rat; conditions: agonist carbachol, Schild slope normalised to 1.00, read-out: pA2 ± SEM, M2 receptor (cardiac) (converted)
T1 construct: isolated, left atria of rats (male 250-350 g); from tissue; host or cells: rat left atrium (isolated, male rats 250-350 g)
T1 sequence (P10980 1-466): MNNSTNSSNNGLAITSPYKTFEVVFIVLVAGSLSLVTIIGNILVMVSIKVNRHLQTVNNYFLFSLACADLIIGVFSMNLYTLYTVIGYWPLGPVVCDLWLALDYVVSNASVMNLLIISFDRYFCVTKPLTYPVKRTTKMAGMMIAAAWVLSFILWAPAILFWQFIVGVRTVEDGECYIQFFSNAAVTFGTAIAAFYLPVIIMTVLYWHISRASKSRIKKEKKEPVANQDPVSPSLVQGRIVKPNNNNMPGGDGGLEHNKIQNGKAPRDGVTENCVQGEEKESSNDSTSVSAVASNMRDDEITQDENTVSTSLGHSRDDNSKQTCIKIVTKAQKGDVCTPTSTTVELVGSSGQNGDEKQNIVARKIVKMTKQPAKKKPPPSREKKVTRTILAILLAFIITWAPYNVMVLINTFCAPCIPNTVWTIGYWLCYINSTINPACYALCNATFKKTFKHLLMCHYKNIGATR
Source text: The affinity of (±)-4,9-dihydro-3-methyl-4-[(4-methyl-1-piperazinyl)-acetyl]-10H-thieno[3,4-b][1,5]benzodiazepin-10-one (telenzepine, compound 2 in Table 7) and its conformers [(+)-enantiomer=compound 1, (-)-enantiomer=compound 3] to muscarinic M1 (ganglionic type) and M2 (cardiac type) receptors was investigated by the following methods:
Electrically Stimulated Left Atrium of the Rat (Eltze et al., 1985, Europ. J. Pharmacol. 112, 211-224).
Isometric contractions (HSE force transducer, K-30; Watanabe Linear Corder Mark 5) of isolated, left atria of rats (male 250-350 g) were recorded in an organ bath (10 ml, Tyrode nutrient solution, 31° C., gassing with carbogen, initial tension of the organs 0.25 g) under electrical stimulation (HSE stimulator; hook-shaped Pt electrodes at the base of the bath and immersed, annular Pt electrodes 1 cm below the water surface of the bath; 7 V, 3 ms, 2 Hz). After an equilibration time of 30 minutes, cumulative dose/response curves of carbachol (10^-8 -10^-6 M, in the presence of the antagonist also up to 10^-5 or 10^-4 M) were recorded simultaneously on 4 organs in each case by the technique described by van Rossum (1963). The substance to be tested was added to the organ baths 20 minutes before application of the carbachol. The pauses between the individual dose/response curves were 30-45 minutes.
The Tyrode nutrient solution used had the following composition (mM): NaCl 130, KCl 2.0, CaCl2 ·2H2 O 1.8, MgCl2 ·6H2 O 0.98, NaHCO3 12.0, NaH2 PO4 0.42 and glucose monohydrate 5.6. pA2 values (-log of the molar dissociation constants of the competitive antagonist-receptor complex) were determined by linear regression using the Schild plot: pA2 =-log [B/(x-1)], (Arunlakshana and Schild, 1959).
Table 7 below gives pA2 values of the substances, for which the slope of the regression lines for theoretically competitive antagonism have been normalised to 1.00 (Tallarida et al., 1979).

[2] = test system: acetylcholine-induced bronchospasm; test: Acetylcholine-induced bronchospasm in anaesthetised, spontaneously breathing guinea pigs, intravenous administration; type: in vivo, guinea pig (Pirbright White); conditions: for Mean bronchospasmolytic activity, percentage increase of Vmaxe vs control spasm / Mean bronchospasmolytic activity, percentage increase of tidal volume (TV) vs control spasm: 0-60 min; for Mean bronchospasmolytic activity, percentage increase of Vmaxe vs control spasm / Mean bronchospasmolytic activity, percentage increase of tidal volume (TV) vs control spasm / Bronchospasmolytic activity, percentage increase of Vmaxe vs control spasm / Bronchospasmolytic activity, percentage increase of tidal volume (TV) vs control spasm: x±SEM, N=10; for Bronchospasmolytic activity, percentage increase of Vmaxe vs control spasm / Bronchospasmolytic activity, percentage increase of tidal volume (TV) vs control spasm: at 60 min; for ED50 of bronchospasmolytic activity, TV / ED50 of bronchospasmolytic activity, Vmaxe: at time 60 min after administration; for ED50 of bronchospasmolytic activity, TV / ED50 of bronchospasmolytic activity, Vmaxe / ED50 of mean bronchospasmolytic activity, TV / ED50 of mean bronchospasmolytic activity, Vmaxe: 60 min; for ED50 of mean bronchospasmolytic activity, TV / ED50 of mean bronchospasmolytic activity, Vmaxe: mean activity 0-60 min
Source text: Effect of Intravenously Administered Telenzepine on Acetylchline-Induced Bronchospasms in Anaesthetised, Spontaneously Breathing Guinea Pigs
Method for simultaneously recording pharmacodynamic or toxic effects on interior sensitive receptors and the respiration of guinea pigs (U. Kilian, E. Muller, E. Ch. Dittmann and J. Hamacher, Arzneim.-Forsch. 28, 1699-1708, 1978).
Pirbright White, Interfauna (Tuttlingen), 350-450 g, male.
Ethylurethane 1.2 g/kg i.p. as 12.5% aqueous solution.
Pneumotachogram: Maximum flow velocities of the respiratory air during expiration (Vmaxe, "peak flow"), tidal volume (TV).
Acetylcholine as spasmogen, 0.2-0.3 μmol/kg i.v., dissolved in 0.9% NaCl.
-10 min control spasm, 0 min administration of substance, +2, +10, +20, +30, +60 min test spasms.
Determination of the effect of telenzepine on the parameters (mean and standard error of mean, n=10) and calculation of the bronchospasmolytic activity from this as percentage inhibition of the acetylcholine-induced decrease of Vmaxe and TV by means of time/effect curves. Computation of a dose/response curve of the mean bronchospasmolytic activity during the observation time (0-60 min) from the areas under the time/effect curves and reading of 1 h ED50 values. Determination of a dose/response curve of the bronchospasmolytic activity at time 60 min and reading ED50 values.

[3] = biological target: M1 receptor (ganglionic); test: Receptor affinity, electrically stimulated rabbit vas deferens in organ bath; conditions: vas deferens of the rabbit, agonist McN-A-343, Schild slope normalised to 1.00
Procedure: Isometric contractions (HSE force transducer, K-30; tilt and zones, BD-9 chart recorder) of isolated seminal duct sections of rabbits (male, white New Zealand rabbits, 2.5-3.5 kg) were recorded in an organ bath (10 ml, 31° C., gassing with carbogen, initial tension of the organs 0.75 g) under electrical stimultion (HSE stimulator; hook-shaped Pt electrode 1 cm below the water surface of the bath; 30 V, 0.5 ms, 0.05 Hz). After an equilibration time of 30 minutes, cumulative dose/response curves of McN-A-343 (10^-7 -2×10^-6 M) were recorded simultaneously on 8 organ sections in each case (control curves), using the technique described by van Rossum (1963). After 3 control curves, a fixed concentration of the agonist (for example 5×10^-7, 10^-6, 3×10^-6, 10^-5 or 3×10^-5 M) per organ section was applied and, after stabilisation of the effect, increasing concentrations of the agonist to be tested were added. The nutrient solution used had the following composition (mM): NaCl 118, KCl 4.7, CaCl2 ·2H2 O 2.5, MgSO4 ·7H2 O 0.6, KH2 PO 4 1.2, NaHCO3 25.0 and glucose 11.1. In order to block α2 -adrenoreceptors, the nutrient solution additionally contained 10^-6 M yohimbine.

[4] = test system: modified Shay rat (lesion formation and acid secretion); test: Antiulcerogenic and secretion-inhibiting action on the modified Shay rat; type: in vivo; conditions: for Gastric protective action, reduction of lesion index, about ED50 / Inhibition of acid secretion, reduction of HCl secretion, about ED50: modified Shay rat, i.v., interpolated dose, 4 h, N=24
Source text: The excellent gastric protective action and the gastric secretion-inhibiting action of the compound (+)-4,9-dihydro-3-methyl-4-[(4-methyl-1-piperazinyl)-acetyl]-10H-thieno[3,4-b][1,5]benzodiazepin-10-one (=compound 1 in Table 8 below) in comparison with the corresponding (-)-enantiomer (=compound 3) and with the racemate (=compound 2) can be detected in studies on the modified Shay rat. The effect of the stated compounds after intravenous (i.v.) administration on the formation of lesions and the acid secretion in the modified Shay rat is shown in Table 8 below.
Ulcers are provoked in rats (female, 180-200 g, 4 animals per cage on high grids) which have fasted for 24 hours, by pylorus ligature (under diethyl ether anaesthesia) and oral administration of 100 mg/10 ml/kg of acetylsalicylic acid. The substances to be tested are administered intravenously (1 ml/kg) directly after the pylorus ligature. The wound is closed by means of Michel clamps. 4 hours afterwards, the animals are sacrificed under anaesthesia with ether by Atlas dislocation, and resection of the stomach.
The stomach is opened along the greater curvature and clamped to a cork sheet, the amount of secreted gastric juice (volume) is determined first and its HCl content (titration with sodium hydroxide solution) being determined subsequently. The number and size (=diameter) of ulcers present are determined using a stereomicroscope, under 10×magnification. The product of severity (according to the following point scale) and number of ulcers serves as an individual lesion index.
The reduction in the means lesion index of each treated group compared with the control group (=100%) serves as a measure of the antiulcerogenic effect. The ED50 is the dose which reduces the mean lesion index or the HCl secretion by 50% compared with the control.

## Cc1scc2c1N(C(=O)CN1CCN(C)CC1)c1ccccc1NC2=O [(+)-telenzepine, (+)-4,9-dihydro-3-methyl-4-[(4-methyl-1-piperazinyl)-acetyl]-10H-thieno[3,4-b][1,5]benzodiazepin-10-one]
[1]
  Kb: 0.0214 µM
[2]; 0.03 μmol/kg i.v.
  Mean bronchospasmolytic activity, percentage increase of Vmaxe vs control spasm: 13 ± 4%
  Mean bronchospasmolytic activity, percentage increase of tidal volume (TV) vs control spasm: 17 ± 4%
  Bronchospasmolytic activity, percentage increase of Vmaxe vs control spasm: 19 ± 6%
  Bronchospasmolytic activity, percentage increase of tidal volume (TV) vs control spasm: 23 ± 7%
[2]; 0.05 μmol/kg i.v.
  Mean bronchospasmolytic activity, percentage increase of Vmaxe vs control spasm: 21 ± 4%
  Mean bronchospasmolytic activity, percentage increase of tidal volume (TV) vs control spasm: 25 ± 5%
  Bronchospasmolytic activity, percentage increase of Vmaxe vs control spasm: 35 ± 7%
  Bronchospasmolytic activity, percentage increase of tidal volume (TV) vs control spasm: 39 ± 7%
[2]; 0.1 μmol/kg i.v.
  Mean bronchospasmolytic activity, percentage increase of Vmaxe vs control spasm: 57 ± 5%
  Mean bronchospasmolytic activity, percentage increase of tidal volume (TV) vs control spasm: 62 ± 5%
  Bronchospasmolytic activity, percentage increase of Vmaxe vs control spasm: 61 ± 6%
  Bronchospasmolytic activity, percentage increase of tidal volume (TV) vs control spasm: 64 ± 7%
[2]; 0.5 μmol/kg i.v.
  Mean bronchospasmolytic activity, percentage increase of Vmaxe vs control spasm: 87 ± 3%
  Mean bronchospasmolytic activity, percentage increase of tidal volume (TV) vs control spasm: 92 ± 3%
  Bronchospasmolytic activity, percentage increase of Vmaxe vs control spasm: 95 ± 4%
  Bronchospasmolytic activity, percentage increase of tidal volume (TV) vs control spasm: 100 ± 4%
[2]; 1 μmol/kg i.v.
  Mean bronchospasmolytic activity, percentage increase of Vmaxe vs control spasm: 82 ± 3%
  Mean bronchospasmolytic activity, percentage increase of tidal volume (TV) vs control spasm: 85 ± 3%
  Bronchospasmolytic activity, percentage increase of Vmaxe vs control spasm: 88 ± 4%
  Bronchospasmolytic activity, percentage increase of tidal volume (TV) vs control spasm: 88 ± 4%
[2]
  ED50 of bronchospasmolytic activity, TV: 0.07 μmol/kg i.v.
  ED50 of bronchospasmolytic activity, Vmaxe: 0.07 μmol/kg i.v.
  ED50 of mean bronchospasmolytic activity, TV: 0.08 μmol/kg i.v.
  ED50 of mean bronchospasmolytic activity, Vmaxe: 0.1 μmol/kg i.v.
[2]; i.v.
  dose range of dose- and time-dependent inhibition of acetylcholine-induced bronchospasm: 0.03-1 μmol/kg i.v.
[2]; i.v., observation period
  persistence of maximum effect: ≥ 1 h
[3]; listed as Compound 1
  pA2 ± SEM, M1 receptor (ganglionic): 9.12 ± 0.08
[4]; listed as 1, 240 min
  Gastric protective action, reduction of lesion index, about ED50: ~0.01 mg/kg i.v.
  Inhibition of acid secretion, reduction of HCl secretion, about ED50: ~0.085 mg/kg i.v.
[4]; warm-blooded animals
  protective action with respect to stomach and intestine, doses compared with acid secretion-inhibiting doses: observed with the administration of doses which are below the doses which inhibit acid secretion

## Cc1scc2c1N(C(=O)CN1CCN(C)CC1)c1ccccc1NC2=O [(-)-telenzepine, (-)-4,9-dihydro-3-methyl-4-[(4-methyl-1-piperazinyl)-acetyl]-10H-thieno-[3,4-b][1,5]benzodiazepin-10-one]
[1]
  Kb: 0.759 µM
[2]; 0.1 μmol/kg i.v.
  Mean bronchospasmolytic activity, percentage increase of Vmaxe vs control spasm: 2 ± 1%
  Mean bronchospasmolytic activity, percentage increase of tidal volume (TV) vs control spasm: 0 ± 2%
  Bronchospasmolytic activity, percentage increase of Vmaxe vs control spasm: 1 ± 1%
  Bronchospasmolytic activity, percentage increase of tidal volume (TV) vs control spasm: -3 ± 3%
[2]; 1 μmol/kg i.v.
  Mean bronchospasmolytic activity, percentage increase of Vmaxe vs control spasm: 17 ± 3%
  Mean bronchospasmolytic activity, percentage increase of tidal volume (TV) vs control spasm: 20 ± 5%
  Bronchospasmolytic activity, percentage increase of Vmaxe vs control spasm: 18 ± 3%
  Bronchospasmolytic activity, percentage increase of tidal volume (TV) vs control spasm: 22 ± 5%
[2]; 5 μmol/kg i.v.
  Mean bronchospasmolytic activity, percentage increase of Vmaxe vs control spasm: 65 ± 4%
  Mean bronchospasmolytic activity, percentage increase of tidal volume (TV) vs control spasm: 74 ± 4%
  Bronchospasmolytic activity, percentage increase of Vmaxe vs control spasm: 77 ± 5%
  Bronchospasmolytic activity, percentage increase of tidal volume (TV) vs control spasm: 88 ± 6%
[2]; 10 μmol/kg i.v.
  Mean bronchospasmolytic activity, percentage increase of Vmaxe vs control spasm: 79 ± 2%
  Mean bronchospasmolytic activity, percentage increase of tidal volume (TV) vs control spasm: 87 ± 2%
  Bronchospasmolytic activity, percentage increase of Vmaxe vs control spasm: 77 ± 3%
  Bronchospasmolytic activity, percentage increase of tidal volume (TV) vs control spasm: 89 ± 3%
[2]; 30 μmol/kg i.v.
  Mean bronchospasmolytic activity, percentage increase of Vmaxe vs control spasm: 89 ± 3%
  Mean bronchospasmolytic activity, percentage increase of tidal volume (TV) vs control spasm: 98 ± 3%
  Bronchospasmolytic activity, percentage increase of Vmaxe vs control spasm: 88 ± 4%
  Bronchospasmolytic activity, percentage increase of tidal volume (TV) vs control spasm: 94 ± 3%
[2]
  ED50 of bronchospasmolytic activity, TV: 2.0 μmol/kg i.v.
  ED50 of bronchospasmolytic activity, Vmaxe: 3.2 μmol/kg i.v.
  ED50 of mean bronchospasmolytic activity, TV: 2.5 μmol/kg i.v.
  ED50 of mean bronchospasmolytic activity, Vmaxe: 3.1 μmol/kg i.v.
[2]; doses between 0.1 and 1 μmol/kg i.v.
  onset of efficacy: significantly delayed
[3]; listed as Compound 3
  pA2 ± SEM, M1 receptor (ganglionic): 6.98 ± 0.14
[4]; 3 mg (i.v.), footnote to the ED50 of HCl secretion
  Inhibition (of acid secretion) following 3 mg: 46%
[4]; listed as 3, 240 min
  Gastric protective action, reduction of lesion index, about ED50: ~0.65 mg/kg i.v.
  Inhibition of acid secretion, reduction of HCl secretion, about ED50: ~3.0 mg/kg i.v.
